Consider one molecule from patent publication US8637681B2, “Pyrrolyl substituted dihydroindol-2-one derivatives, preparation methods and uses thereof” (Qilu Pharmaceutical Co., Ltd., priority 2010, dated 2014).

The subject of data set [1] is human colon cancer HT 29 transplanted tumor. The data set can be described thus: Nude mice transplanted tumor test. Format: in vivo, female Balb/cA nude mice. Details: key to d21 Vave ± SD (average tumor volume): tumor volume TV = ½×a×b² (a, b = major, minor diameter), in mm³. The method in brief: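 Female Balb/cA nude mice bearing HT 29 colon tumour fragments in the right axilla, grouped at about 120 mm^3, received 80 mg/kg intragastrically daily for 20 days; vehicle was water with 0.1% Tween 80. Tumour volume (½×a×b^2) measured 2-3 times weekly, expressed as relative tumour volume Vt/V0.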

Data set [2] concerns three kinds of tumor cells (A549, Hela, A431). The data set can be described thus: Cytotoxicity test, summary over the three tumor cell lines. The following applies: compared with positive control Sunitinib. Format: cell-based, human. The procedure:
Cytotoxicity of the compounds of the present invention was tested with human non-small cell lung cancer cells A549, human cervical cancer Hela cells, human skin cancer cells A431. The test was performed by referring to the method described by Rusnak et al (Rusnak D. W., et al., Cell Prolif., 2007, 40, 580-94).
In Dulbecco's Modified Eagle Medium (DMEM) comprising 10% fetal bovine serum, 2 mM glutamine and non-essential amino acids, cells were cultured at 37° C. in 5% CO2 cell incubator. Trypsin/ethylenediamine tetraacetic acid (EDTA) were used to harvest cells in cell culture bottle. The cells were added to a 96-well cell culture plate, 4000/well (0.1 ml medium), adhering wall overnight, 0.1 ml of the diluted solution of the compounds to be tested was added, the final concentration of DMSO was 0.25%. The cell culture plate was incubated at 37° C., 5% CO2 conditions for 72 h. The change of cellular morphology was observed under microscope, and then 50 μl of 50% (mass/volume) trichloroacetic acid (TCA) was added to each well to fix cells. The final concentration of TCA was 10%. It stood for 5 min, than was placed in 4° C. refrigerator for 1 h, the wells of the culture plate were washed with deionized water for 5 times to remove TCA, drained, dried in air until no wet trace was observed. 100 μl of 0.4% (mass/volume) SRB was added to each well, stood at room temperature for 10 min. The liquid in each well was discarded, and then the wells were washed with 1% acetic acid for 5 times, dried in air, extracted with 150 μl of 10 mM Tris base (trihydroxymethylaminomethane, pH 10.5). The absorption at a wavelength of 540 nm was measured. The IC50 (μM) of the compound was calculated using Logit method.

A short description of data set [3]: Cytotoxicity test (SRB), Hela. The following applies: human, Hela cervical cancer cells. Format: cell-based. The method in brief: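 A549, Hela and A431 cells seeded at 4000/well, adhered overnight, then exposed to compound dilutions (final DMSO 0.25%) for 72 h at 37° C., 5% CO2. SRB read-out: absorbance at 540 nm; IC50 (μM) calculated by Logit method.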
Data set [4] in a line: Cytotoxicity test (SRB), A549. Format: cell-based. The following applies: human, A549 non-small cell lung cancer cells. Put shortly: (§1)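 Cells seeded at 4000/well in DMEM with 10% FBS, adhered overnight, then treated 72 h at 37° C, 5% CO2 with compound (final DMSO 0.25%). TCA-fixed and stained with SRB, A540 read. IC50 (μM) calculated by Logit method.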
In data set [5] the test system is arterial ring angiogenesis in rats. The data set can be described thus: Inhibitory actions on arterial ring angiogenesis in rats. Format: cell-based. Particulars: Rattus norvegicus, area covered by micrangiums vs control well, read-out: Inhibitory rate (%). The method in brief: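 Rat thoracic aorta cut into 1 mm rings, embedded in Matrigel and cultured at 37 °C with compound; medium and drug renewed every 3 days. Microvessel sprouting area imaged by microscopy; inhibition (%) = (control area − drug area)/control area × 100.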

Data set [6] in a line: Cytotoxicity test (SRB), A431. Format: cell-based. The following applies: human, A431 skin cancer cells. The method in brief: as §1

The structures appear in SMILES notation.

In general, IC50 refers to the midpoint of a concentration-inhibition curve. Turning to `CCN(CC)CC(=O)Nc1c(C)[nH]c(/C=C2\C(=O)Nc3ccc(F)cc32)c1C` [Compound 20, N-{5-[5-fluoro-2-oxo-1,2-dihydro-indol-(3Z)-ylidenemethyl]-2,4-dimethyl-1H-pyrrol-3-yl}-2-(N,N-diethylamino)acetamide], the Dead animal number in data set [1] (80 mg/kg intragastrically each day for 20 days, dead/total animals) is recorded as 0/6. For the same molecule, the “Activity of inhibiting HT-29 transplanted tumor in vivo (in words)” value in data set [1] (80 mg/kg, compared with positive control Sunitinib) was “inhibitory activity comparable to the positive control Sunitinib”. In addition, the inhibition in vivo at 80 mg/kg in data set [1] (Mus musculus, HT-29, po, 504 h, d21, 80 mg/kg intragastrically each day for 20 days, (1−T/C)×100%, read-out: Tumor inhibition rate d21 (%)) came out at 89.4%. Further, the “d0 Wave ± SD (average bodyweight of nude mice)” value in data set [1] (d0, at grouping before administration (baseline)) was found to be 19.6 ± 0.69. Further, in data set [1] (d21, 80 mg/kg intragastrically each day for 20 days), the “d21 Wave ± SD (average bodyweight of nude mice)” value stood at 20.3 ± 0.63. In addition, the “d21 Vave ± SD (average tumor volume)” value in data set [1] (d21, 80 mg/kg intragastrically each day for 20 days, HT 29 in nude mice, in mm³ (unit assumed)) is 93.5 ± 42.8. Besides, the “d21 RTV ± SD (relative tumor volume)” value in data set [1] (d21, 80 mg/kg intragastrically each day for 20 days, RTV=Vt/V0) stood at 0.76 ± 0.32. Further, the “Cytotoxicity to tumor cells (in words)” value in data set [2] is recorded as “certain toxicity to some cells”. In addition, the values for the IC50 at 72 h in data set [3], in data set [4] and in data set [6] were 5.21 µM, more than 30 µM and more than 30 µM, respectively. The inhibition at 0.2 µg/mL in data set [5] (0.2 μg/ml) stood at 98%. Besides, in data set [5] (1 μg/ml), the inhibition at 1 µg/mL amounted to 100%. Also, in data set [5] (5 μg/ml), the inhibition at 5 µg/mL was determined as 100%.
